# Reference: patent US10273226B2, “Pyrazolyl-heteroarylamides as pesticides” (Bayer Animal Health GmbH, priority 2014, dated 2019)
# Experiments:
# Format in all cases: in vivo
# Rhipicephalus sanguineus = Rhipicephalus sanguineus in vitro contact test with adult brown dog ticks; details: application rate 5 μg/cm^2 (500 g/ha); after 48 h; ticks dead or moribund
# Method: Rhipicephalus sanguineus—In Vitro Contact Tests with Adult Brown Dog Ticks
# (§1) For the coating of the test tubes, 9 mg of active ingredient are first dissolved in 1 ml of acetone p.a. and then diluted to the desired concentration with acetone p.a. 250 μl of the solution are distributed homogeneously on the inner walls and base of a 25 ml test tube by turning and rocking on an orbital shaker (rocking rotation at 30 rpm for 2 h). With 900 ppm active ingredient solution and internal surface 44.7 cm^2, given homogeneous distribution, an area-based dose of 5 μg/cm^2 is achieved.
# After the solvent has evaporated off, the tubes are populated with 5-10 adult dog ticks (Rhipicephalus sanguineus), sealed with a perforated plastic lid and incubated in a horizontal position in the dark at room temperature and ambient humidity. After 48 h, efficacy is determined. To this end, the ticks are knocked to the floor of the tube and incubated on a hotplate at 45-50° C. for not more than 5 min. Ticks which remain motionless on the floor or move in such an uncoordinated manner that they are unable to deliberately avoid the heat by climbing upwards are considered to be dead or moribund.
# An efficacy of 100% means that all the ticks were dead or moribund. 0% efficacy means that none of the ticks had been harmed.
# Boophilus microplus = Boophilus microplus injection test; details: application rate 20 μg/animal; injection into abdomen; assessed after 7 days
# Method: Boophilus microplus—Injection Test
# (§2) Solvent: dimethyl sulphoxide
# To produce an appropriate active ingredient formulation, 10 mg of active ingredient are mixed with 0.5 ml of solvent and the concentrate is diluted with solvent to the desired concentration.
# 1 μl of the active ingredient solution is injected into the abdomen of 5 engorged adult female cattle ticks (Boophilus microplus). The animals are transferred into dishes and kept in a climate-controlled room.
# Efficacy is assessed after 7 days by laying of fertile eggs. Eggs which are not visibly fertile are stored in a climate-controlled cabinet until the larvae hatch after about 42 days. An efficacy of 100% means that none of the ticks has laid any fertile eggs; 0% means that all the eggs are fertile.
# Lucilia cuprina = Lucilia cuprina test; details: application rate 100 ppm; L1 larvae; after 2 days
# Method: as §2
# To produce an appropriate active ingredient formulation, 10 mg of active ingredient are mixed with 0.5 ml of dimethyl sulphoxide, and the concentrate is diluted with water to the desired concentration.
# About 20 L1 larvae of the Australian sheep blowfly (Lucilia cuprina) are transferred into a test vessel containing minced horsemeat and the active ingredient preparation of the desired concentration.
# After 2 days, the kill in % is determined. 100% means that all the larvae have been killed and 0% means that none of the larvae have been killed.
# Phaedon cochleariae = Phaedon cochleariae spray test; details: application rate 100 g/ha; larvae; after 7 days
# Method: Phaedon cochleariae—Spray Test
# (§3) To produce an appropriate active ingredient formulation, 1 part by weight of active ingredient is dissolved using the specified parts by weight of solvent and made up with water containing an emulsifier concentration of 1000 ppm until the desired concentration is attained. To produce further test concentrations, the preparation is diluted with emulsifier-containing water.
# Discs of Chinese cabbage leaves (Brassica pekinensis) are sprayed with an active ingredient formulation of the desired concentration and, after drying, populated with larvae of the mustard beetle (Phaedon cochleariae).
# After 7 days, efficacy in % is determined. 100% means that all the beetle larvae have been killed; 0% means that no beetle larvae have been killed.
# Spodoptera frugiperda = Spodoptera frugiperda spray test; details: application rate 100 g/ha; caterpillars; after 7 days
# Method: Spodoptera frugiperda—Spray Test
# as §3
# Leaf discs of maize (Zea mays) are sprayed with an active ingredient formulation of the desired concentration and, after drying, populated with caterpillars of the armyworm (Spodoptera frugiperda).
# After 7 days, efficacy in % is determined. 100% means that all the caterpillars have been killed; 0% means that no caterpillars have been killed.
# Tetranychus urticae = Tetranychus urticae spray test, OP-resistant; details: application rate 100 g/ha; after 6 days
# Method: Tetranychus urticae—Spray Test, OP-Resistant
# as §3
# Discs of bean leaves (Phaseolus vulgaris) infested by all stages of the greenhouse red spider mite (Tetranychus urticae) are sprayed with an active ingredient formulation of the desired concentration.
# After 6 days, efficacy in % is determined. 100% means that all the spider mites have been killed; 0% means that none of the spider mites have been killed.
# Ctenocephalides felis [1] = assay: Ctenocephalides felis oral test; details: application rate 100 ppm in citrated cattle blood; after 2 days
# Method: Ctenocephalides felis—Oral Test
# as §2
# For the purpose of producing an appropriate active ingredient formulation, 10 mg of active ingredient are mixed with 0.5 ml of dimethyl sulphoxide. Dilution with citrated cattle blood gives the desired concentration.
# About 20 unfed adult cat fleas (Ctenocephalides felis) are placed into a chamber which is closed at the top and bottom with gauze. A metal cylinder whose bottom end is closed with parafilm is placed onto the chamber. The cylinder contains the blood/active ingredient preparation, which can be imbibed by the fleas through the parafilm membrane.
# After 2 days, the kill in % is determined. 100% means that all of the fleas have been killed; 0% means that none of the fleas have been killed.
# Ctenocephalides felis [2] = assay: Ctenocephalides felis in vitro contact test with adult cat fleas; details: application rate 5 μg/cm^2 (500 g/ha); after 48 h; fleas dead or moribund
# Method: Ctenocephalides felis—In Vitro Contact Tests with Adult Cat Fleas
# as §1
# After the solvent has evaporated off, the tubes are populated with 5-10 adult cat fleas (Ctenocephalides felis), sealed with a perforated plastic lid and incubated in a horizontal position at room temperature and ambient humidity. After 48 h, efficacy is determined. To this end, the test tubes are stood upright and the fleas are knocked to the base of the tube. Fleas which remain motionless at the base or move in an uncoordinated manner are considered to be dead or moribund.
# 100% efficacy means that all the fleas were dead or moribund. 0% efficacy means that no fleas were harmed.
SMILES,efficacy (Rhipicephalus sanguineus),efficacy (laying of fertile eggs) (Boophilus microplus),efficacy (kill in %) (Lucilia cuprina),efficacy (Phaedon cochleariae),efficacy (Spodoptera frugiperda),efficacy (Tetranychus urticae),efficacy (kill in %) (Ctenocephalides felis [1]),efficacy (Ctenocephalides felis [2])
CN(C)c1ccc(C(=O)Nc2cc(-c3cnn(-c4c(C(F)(F)F)c(C(F)(F)C(F)(F)F)nn4C)c3)ccc2F)cc1 [Example 1-054],100%,100%,100%,100%,100%,100%,–,–
CC(C)C(C)(C)C(=O)Nc1cc(-c2cnn(-c3c(C(F)(F)F)c(C(F)(F)C(F)(F)F)nn3C)c2)ccc1F [Example 1-065],–,100%,80%,–,–,100%,90%,–
C[C@@H](F)C(=O)Nc1cc(-c2cnn(-c3c(C(F)(F)F)c(C(F)(F)C(F)(F)F)nn3C)c2)ccc1F [Example 1-066],100%,100%,80%,–,–,–,100%,100%
Cc1occc1C(=O)Nc1cc(-c2cnn(-c3c(C(F)(F)F)c(C(F)(F)C(F)(F)F)nn3C)c2)ccc1F [Example 1-067],–,100%,100%,100%,100%,100%,100%,–
Cc1ccc(C(=O)Nc2cc(-c3cnn(-c4c(C(F)(F)F)c(C(F)(F)C(F)(F)F)nn4C)c3)ccc2F)s1 [Example 1-069],100%,100%,100%,100%,100%,90%,100%,100%
Cn1nc(C(F)(F)C(F)(F)F)c(C(F)(F)F)c1-n1cc(-c2ccc(F)c(NC(=O)C(C)(C)C)c2)cn1 [Example 1-078],100%,100%,100%,–,100%,100%,80%,–
Cc1ccc2c(Cl)c(C(=O)Nc3cc(-c4cnn(-c5c(C(F)(F)F)c(C(F)(F)C(F)(F)F)nn5C)c4)ccc3F)sc2c1 [Example 1-083],–,80%,–,–,–,–,–,80%
Cc1ccc(C(=O)Nc2cc(-c3cnn(-c4c(C(F)(F)F)c(C(F)(F)C(F)(F)F)nn4C)c3)ccc2F)cc1F [Example 1-092],100%,100%,100%,100%,100%,100%,100%,–
Cn1nc(C(F)(F)C(F)(F)F)c(C(F)(F)F)c1-n1cc(-c2ccc(F)c(NC(=O)c3ccc4c(c3)OCO4)c2)cn1 [Example 1-093],100%,100%,100%,100%,100%,100%,100%,–
Cn1nc(C(F)(F)C(F)(F)F)c(C(F)(F)F)c1-n1cc(-c2ccc(F)c(NC(=O)Cc3cccc(F)c3)c2)cn1 [Example 1-121],100%,100%,100%,100%,100%,100%,100%,–
